The results in this text go back to US11767295B2, “Isoindole derivative” (TIANJIN HEMAY PHARMACEUTICAL CO., LTD., priority 2018, dated 2023).

The structures appear in SMILES notation.

Type in all cases: in vivo
Data set [1] concerns Phorbol ester (TPA)-induced ear swelling in mice. The data set is described as follows: Inhibition of phorbol ester (TPA)-induced ear swelling in mice (Biological Example 4). The conditions noted are these: ICR mice, 30 mg/mL in acetone, 40 μL in 2 administrations on right ear; 5 hours after TPA modeling. The protocol:
40 male ICR mice were selected and divided into 5 groups. There were 8 mice in each group.
(§1) Before the test, the animals were grouped and the hair around the right ear of the mice was removed.
20 μL of respective drug was applied to the animals in each test group (a blank solvent was applied to the model control group). Modeling and induction were carried out after 1 h 10 min. Except for the blank group, 20 μL of TPA at a concentration of 125 μg/mL were applied to the right ears of the animals for induction. After induction for 10 minutes, 20 μL of respective drug was applied to the right ears of the animals in each test group (a blank solvent was applied to the model control group).
(§2) After modeling for 5 hours, ear pieces of both sides on the same location of animals in each group were taken with a punch and weighed to calculate the ear swelling degree, ear swelling rate and inhibitory rate.
(§3) The ear swelling degree and ear swelling rate after modeling and administration for 5 hours were analyzed and tested with One-Way ANOVA multiple-group test index in SPSS17.0. P<0.05 indicated there were statistical differences. Ear swelling degree (mg)=right ear weight (mg)−left ear weight (mg); Ear swelling rate (%)=(right ear weight−left ear weight)/left ear weight×100%; Inhibitory rate of ear swelling degree (%)=1−(ear swelling degree of drug administration group−ear swelling degree of blank control group)/(ear swelling degree of model control group−ear swelling degree of blank control group)×100%.

Data set [2] relates to DNCB-induced atopic dermatitis in Balb/c mice. The data set is described as follows: Efficacy evaluation test of DNCB-induced atopic dermatitis in Balb/c mice model (Biological Example 1). The conditions noted are these: BID × 10; for Inhibitory Rate of Ear Swelling Degree / Inhibitory Rate of Ear Thickness / Ear Thickness Change, Day 1 / Ear Thickness Change, Day 10 / Weight Changes of Animals, Day 10 / Ear Thickness Change, Day 17 / Weight Changes of Animals, Day 17 / Ear Thickness Change, Day 18 / Weight Changes of Animals, Day 18 / Ear Thickness / Ear Swelling Degree / IgE Concentration / Inhibitory Rate of IgE Concentration: 1 mg/mouse on ear; for Inhibitory Rate of Ear Swelling Degree / Inhibitory Rate of Ear Thickness / Ear Thickness / Ear Swelling Degree / IgE Concentration / Inhibitory Rate of IgE Concentration: 18th day; for Inhibitory Rate of Ear Swelling Degree / Inhibitory Rate of Ear Thickness / Inhibitory Rate of IgE Concentration: vs model and blank control; for Weight Changes of Animals, Day 1 / Inhibitory Rate of Ear Thickness / Ear Thickness Change, Day 1 / Ear Thickness Change, Day 10 / Weight Changes of Animals, Day 10 / Ear Thickness Change, Day 17 / Weight Changes of Animals, Day 17 / Ear Thickness Change, Day 18 / Weight Changes of Animals, Day 18 / Ear Thickness: Balb/c mice; for Weight Changes of Animals, Day 1: 1 mg/mouse (50 mg/mL, 20 μL) on ear; for Weight Changes of Animals, Day 1 / Ear Thickness Change, Day 1 / Ear Thickness Change, Day 10 / Weight Changes of Animals, Day 10 / Ear Thickness Change, Day 17 / Weight Changes of Animals, Day 17 / Ear Thickness Change, Day 18 / Weight Changes of Animals, Day 18: Mean ± S.D.; for Ear Thickness: Table 4; for Ear Swelling Degree: right minus left ear piece weight (8 mm punch); for IgE Concentration / Inhibitory Rate of IgE Concentration: serum. As to the method: 60 healthy male SPF Balb/c mice, each of which the body weight was 19-21 g, were randomly divided into 6 groups by body weight. There were 10 mice in each group.
Before the test, the hair around the right ear of the mouse was removed to reduce the interference in the drug adhesion to the hair.
The start of the test was recorded as Day 1. The specific time for measuring ear thickness was slightly adjusted based on FIG. 1. After the end of the 18th day of the test, blood was taken from each animal to detect the concentration of immunoglobulin (IgE) in the serum (in accordance with the kit instructions). Both ears of the animal were cut off. Ear pieces were cut by an 8 mm punch at the fixed position of the ears and weighed. Differences in the swelling degrees of two ears were calculated.
The changes in mouse ear thickness and the ear weights of the same area and the IgE concentrations in the serum among different groups on the 18th day were analyzed and compared statistically with One-Way Anova in SPSS 17, respectively. The G test method was used to delete outliers. p<0.05 indicated there were statistical differences. Ear swelling degree (mg)=right ear weight (mg)−left ear weight (mg); Ear thickness change (mm)=right ear thickness (mm)−left ear thickness (mm); Inhibitory rate of ear swelling degree (%)=1−(ear swelling degree of drug administration group−ear swelling degree of blank control group)/(ear swelling degree of model control group−ear swelling degree of blank control group)×100%; Inhibitory rate of ear thickness change (%)=1−(ear thickness change of drug administration group−ear thickness change of blank control group)/(ear thickness change of model control group−ear thickness change of blank control group)×100%; Inhibitory rate of IgE (%)=1−(IgE concentration in administration group−IgE concentration in blank control group)/(IgE concentration in model control group−IgE concentration in blank control group)×100%.

In data set [3] the test system is Phorbol ester (TPA)-induced ear swelling in mice. Put plainly: Inhibition of phorbol ester (TPA)-induced ear swelling in mice (Biological Example 5). The conditions noted are these: ICR mice, 5 hours after TPA modeling. As to the method:
(§4) 72 male ICR mice were selected and divided into 9 groups. There were 8 mice in each group.
as §1
(§5) 20 μL of respective drug was applied to the animals in each test group (a blank solvent was applied to the model control group). Modeling and induction were carried out after 1 h 10 min. Except for the blank group, 20 μL of TPA at a concentration of 125 μg/mL were applied to the right ears of the animals for induction. After induction for 10 minutes, 20 μL of respective drug were applied to the right ears of the animals in each test group (a blank solvent was applied to the model control group).
as §2, §3

A further data set has as its system ICR mice. Put plainly: Acute toxicity test of single gavage in mice (Biological Example 9). The conditions noted are these: ICR mice, single gavage 2000 mg/Kg; for Clinical observation: appearance, breath, behavior, reflex and defecation: male and female, observed 15 days; for Dissection and general observation of each organ / Organ indexes: end of the test. As to the method:
30 healthy ICR mice of SPF grade were randomly divided into 5 groups according to the gender segment, in which 15 mice were male and 15 mice were female. There were 3 mice/gender/group. There were 6 mice in each group, in which 3 mice were male and 3 mice were female.
Single administration by gavage was carried out. The symptoms and responses of all the animals were observed after the administration and were recorded faithfully. The test was observed continuously for 15 days. The symptoms of the animals were recorded. After the test, the tissues and organs of all the animals were weighed, observed and recorded. The specimens were kept.
Body weight, appearance, breath, behavior, reflex and defecation.

Data set [4] concerns Phorbol ester (TPA)-induced ear swelling in mice. The data set is described as follows: Inhibition of phorbol ester (TPA)-induced ear swelling in mice (Biological Example 6). Particulars: ICR mice, 5 hours after TPA modeling. The protocol:
as §4, §1, §5
After modeling for 5 hours, ear pieces of both sides at the same location of animals in each group were taken with a punch and weighed to calculate the ear swelling degree, ear swelling rate and inhibitory rate.
The ear swelling degree and ear swelling rate after modeling and administration for 5 hours were analyzed and tested with One-Way ANOVA multiple-group test index in SPSS17.0. […] Ear swelling degree (mg)=right ear weight (mg)−left ear weight (mg); Ear swelling rate (%)=(right ear weight−left ear weight)/left ear weight×100%; Inhibitory rate of ear swelling degree (%)=1−(swelling degree of drug administration group−swelling degree of blank control group)/(swelling degree of model control group−swelling degree of blank control group)×100%.

[5] abbreviates: 2 mg/mouse on right ear, (right−left)/left ear weight.
Setting [6] is: 2 mg/mouse on right ear, vs model and blank control.
Setting [7] is: 50 mg/mL in acetone, 40 μL in 2 administrations (2 mg/mouse).

As to `CCOc1cc([C@@H](CC(=O)OC)N2C(=O)c3cccc(NC(C)=O)c3C2=O)ccc1OC` [Example 9, methyl (R)-3-(4-acetamido-1,3-dioxoisoindolin-2-yl)-3-(3-ethoxy-4-methoxyphenyl)propionate], in data set [1], the “Inhibitory Rate of Ear Swelling Degree” value is recorded as 54.5%.

As to `CCCOC(=O)CC(c1ccc(OC)c(OCC)c1)N1C(=O)c2cccc(NC(C)=O)c2C1=O` (stereo not drawn) [Example 11, propyl 3-(4-acetamido-1,3-dioxoisoindolin-2-yl)-3-(3-ethoxy-4-methoxyphenyl)propionate], in data set [2], the “Inhibitory Rate of Ear Swelling Degree” value is listed as 49.2%; the “Weight Changes of Animals, Day 1” value is 20.3 ± 1.3 g; the “Inhibitory Rate of Ear Thickness” value was determined as 51.5%; the “Ear Thickness Change, Day 1” value was 0.22 ± 0.01 mm. Besides, in data set [2], the “Ear Thickness Change, Day 10” value is recorded as 0.33 ± 0.09 mm; the “Weight Changes of Animals, Day 10” value came to 21.6 ± 1.1 g; the “Ear Thickness Change, Day 17” value worked out at 0.35 ± 0.04 mm; the “Weight Changes of Animals, Day 17” value amounted to 21.2 ± 1.2 g. Further, in data set [2], the “Ear Thickness Change, Day 18” value was 0.48 ± 0.06 mm; the “Weight Changes of Animals, Day 18” value was 21.1 ± 1.3 g; the “Ear Thickness” value worked out at 0.48 ± 0.06 mm; the “Ear Swelling Degree” value stood at 12.8 ± 4.9 mg. In addition, in data set [2], the “IgE Concentration” value worked out at 5854.5 ± 2631.7 ng/mL and the “Inhibitory Rate of IgE Concentration” value is given as 36.5%. Further, the “Ear Swelling Rate” value in data set [3] (setting [5]) is 46.3 ± 35.7 %. Further, in data set [3] (setting [6]), the “Inhibitory Rate of Ear Swelling Degree” value stood at 81.7%. For the same compound, the “Ear Swelling Degree” value in data set [3] (setting [7]) turned out to be 6.5 ± 5.0 mg. Also, in the data set on ICR mice, the “Clinical observation: appearance, breath, behavior, reflex and defecation” value is reported as “No obvious abnormalities of appearance, breath, behavior,”; the “Dissection and general observation of each organ” value is on record as “No obvious abnormalities related to the compounds were”; the Organ indexes entry was “No obvious abnormalities of organ indexes were observed”.

Regarding `CCOc1cc(C(CC(=O)OC)N2C(=O)c3cccc(NC(C)=O)c3C2=O)ccc1OC` (stereo not drawn) [Example 1, methyl 3-(4-acetamido-1,3-dioxoisoindolin-2-yl)-3-(3-ethoxy-4-methoxyphenyl)propionate], in data set [2], the “Inhibitory Rate of Ear Swelling Degree” value was determined as 21.3%; the “Weight Changes of Animals, Day 1” value came out at 21.0 ± 0.8 g; the “Inhibitory Rate of Ear Thickness” value came out at 22.5%; the “Ear Thickness Change, Day 1” value amounted to 0.22 ± 0.02 mm. In addition, in data set [2], the “Ear Thickness Change, Day 10” value was determined as 0.47 ± 0.02 mm; the “Weight Changes of Animals, Day 10” value amounted to 22.4 ± 0.8 g; the “Ear Thickness Change, Day 17” value came to 0.60 ± 0.08 mm; the “Weight Changes of Animals, Day 17” value worked out at 21.9 ± 1.1 g. In data set [2], the “Ear Thickness Change, Day 18” value was found to be 0.64 ± 0.07 mm; the “Weight Changes of Animals, Day 18” value was 22.0 ± 1.3 g; the “Ear Thickness” value was 0.64 ± 0.07 mm; the “Ear Swelling Degree” value came out at 19.9 ± 5.1 mg. Also, in data set [2], the “IgE Concentration” value is 6631.4 ± 1431.1 ng/mL and the “Inhibitory Rate of IgE Concentration” value amounted to 25.6%. Also, the “Inhibitory Rate of Ear Swelling Degree” value in data set [1] was 60.1%.

On to `CCCOc1ccc(C(CC(=O)OC)N2C(=O)c3cccc(NC(C)=O)c3C2=O)cc1OCC` (stereo not drawn) [Example 31, methyl 3-(4-acetamido-1,3-dioxoisoindolin-2-yl)-3-(3-ethoxy-4-propoxyphenyl)propionate], for which the “Ear Swelling Rate” value in data set [4] (setting [5]) came to 34.3 ± 14.9 %. In addition, in data set [4] (setting [6]), the “Inhibitory Rate of Ear Swelling Degree” value was 87.6%. Also, the “Ear Swelling Degree” value in data set [4] (setting [7]) came to 4.9 ± 2.0 mg. Besides, in the data set with ICR mice, the “Clinical observation: appearance, breath, behavior, reflex and defecation” value was “No obvious abnormalities of appearance, breath, behavior,”; the “Dissection and general observation of each organ” value was “No obvious abnormalities related to the compounds were”; the Organ indexes result is “No obvious abnormalities of organ indexes were observed”.
